Experiments:
Assay type in all cases: in vivo
Echinochloa oryzicola = test: Herbicidal efficacy test by pre-emergence treatment under submergence condition; conditions: 15th day after treatment, ratings of 1 to 5
Description: (§3) A 1/10,000-are pot was filled with paddy field soil, and, after plowing, seeds of Echinochloa oryzicola, Cyperus difformis, Monochoria vaginalis, Scirpus juncoides, Eleocharis acicularis and other annual broadleaf weeds such as Lindernia procumbens, Rotala indica and Elatine triandra were sown. Rice (oryza sativa) seedlings (cultiver “Koshihikari”) at a 2.5-leaf stage were transplanted and kept under a submergence condition. After one day, the wettable powder or emulsifiable concentrate of the compound of the present invention, prepared according to Preparation Example, was diluted and dropped on a water surface at a predetermined dose.

[1] = tested on: annual broadleaf weeds such as Lindernia procumbens, Rotala indica and Elatine triandra; test: as above; conditions: 15th day after treatment, ratings of 1 to 5
Description: as §3

sweet corn (Zea mays) = test: Injury to corn, soil treatment before germination under upland field condition; conditions: dose 1 kg/ha; 21st day after treatment; ratings of 1 to 5
Description: (§1) A vat having an area of 5×10 cm^2 and a depth of 5 cm was filled with upland field soil, and seeds of Chenopodium album, Echinochloa crus-galli, Amaranthus viridis, Digitaria ciliaris and sweet corn (Zea mays) were sown thereon and covered with soil by a depth of 0.5 cm.

Abutilon theophrasti = test: Herbicidal efficacy test by foliar treatment after germination under upland field condition; conditions: Dc: Digitaria ciliaris (table footnote; method names Abutilon theophrasti), dose 1 kg/ha, rated 1 to 5 on the 14th day after treatment
Monochoria vaginalis = test: Herbicidal efficacy test by pre-emergence treatment under submergence condition; conditions: 15th day after treatment, ratings of 1 to 5; also: key: 1 shows no influence; 5 shows complete die
Description: as §3

Echinochloa crus-galli [2] = test: Herbicidal efficacy test by foliar treatment after germination under upland field condition; conditions: dose 1 kg/ha, rated 1 to 5 on the 14th day after treatment
Description: (§2) A vat having an area of 5×10 cm^2 and a depth of 5 cm was filled with upland field soil, and seeds of Chenopodium album, Echinochloa crus-galli, Amaranthus viridis and Abutilon theophrasti were sown thereon and covered with soil by a depth of 0.5 cm. Water was sprayed as required to grow them for 14 days.

Amaranthus viridis [3] = test: as above; conditions: dose 1 kg/ha, rated 1 to 5 on the 14th day after treatment
Description: as §2

Chenopodium album [4] = test: as above; conditions: dose 1 kg/ha, rated 1 to 5 on the 14th day after treatment
Description: as §2

Scirpus juncoides = test: Herbicidal efficacy test by pre-emergence treatment under submergence condition; conditions: 15th day after treatment, ratings of 1 to 5
Description: as §3

Echinochloa crus-galli [5] = test: Herbicidal efficacy test by soil treatment before germination under upland field condition; conditions: dose 1 kg/ha; 21st day after treatment; ratings of 1 to 5
Description: as §1

Amaranthus viridis [6] = test: as above; conditions: dose 1 kg/ha; 21st day after treatment; ratings of 1 to 5
Description: as §1

Digitaria ciliaris = test: as above; conditions: dose 1 kg/ha; 21st day after treatment; ratings of 1 to 5
Description: as §1

Chenopodium album [7] = test: as above; conditions: dose 1 kg/ha; 21st day after treatment; ratings of 1 to 5
Description: as §1

Cyperus difformis = test: Herbicidal efficacy test by pre-emergence treatment under submergence condition; conditions: 15th day after treatment, ratings of 1 to 5; also: key: 1 shows no influence; 5 shows complete die
Description: as §3

Eleocharis acicularis = test: as above; conditions: 15th day after treatment, ratings of 1 to 5; also: key: 1 shows no influence; 5 shows complete die
Description: as §3
For Herbicidal activity Av in this document: key: 1 shows no influence; 5 shows complete die.
For Herbicidal activity Ca in this document: key: 1 shows no influence; 5 shows complete die.

CCNC(=S)n1nc(Oc2c(Cl)cc(C(F)(F)F)cc2Cl)cc1C [Compound 3-45]
Herbicidal efficacy Eo (Echinochloa oryzicola; dose 0.5 kg/ha): 5
Herbicidal efficacy Eo (Echinochloa oryzicola; dose 1 kg/ha): 5
Herbicidal efficacy Blw ([1]; dose 0.5 kg/ha): 5
Herbicidal efficacy Blw ([1]; dose 1 kg/ha): 5
Injury Zm (sweet corn (Zea mays)): 2
Herbicidal activity Dc (Abutilon theophrasti): 5
Herbicidal efficacy Mv (Monochoria vaginalis; dose 0.5 kg/ha): 5
Herbicidal efficacy Mv (Monochoria vaginalis; dose 1 kg/ha): 5
Herbicidal activity Ec (Echinochloa crus-galli [2]): 5
Herbicidal activity Av (Amaranthus viridis [3]): 5
Herbicidal activity Ca (Chenopodium album [4]): 5
Herbicidal efficacy Sj (Scirpus juncoides; dose 0.5 kg/ha): 4
Herbicidal efficacy Sj (Scirpus juncoides; dose 1 kg/ha): 5
Herbicidal activity Ec (Echinochloa crus-galli [5]): 5
Herbicidal activity Av (Amaranthus viridis [6]): 5
Herbicidal activity Dc (Digitaria ciliaris): 5
Herbicidal activity Ca (Chenopodium album [7]): 5
Herbicidal efficacy Cd (Cyperus difformis; dose 0.5 kg/ha): 5
Herbicidal efficacy Cd (Cyperus difformis; dose 1 kg/ha): 5
Herbicidal efficacy Ea (Eleocharis acicularis; dose 0.5 kg/ha): 5
Herbicidal efficacy Ea (Eleocharis acicularis; dose 1 kg/ha): 5

CCNC(=O)n1nc(Oc2ccc(C(F)(F)F)cc2[N+](=O)[O-])cc1C [Compound 3-67]
Herbicidal activity Dc (Abutilon theophrasti): 5
Herbicidal activity Ec (Echinochloa crus-galli [2]): 4.9
Herbicidal activity Av (Amaranthus viridis [3]): 5
Herbicidal activity Ca (Chenopodium album [4]): 5

Cc1cc(Oc2c(Cl)cc(C(F)(F)F)cc2Cl)nn1C(=O)NC(C)C [Compound 3-89]
Herbicidal efficacy Eo (Echinochloa oryzicola; dose 0.5 kg/ha): 5
Herbicidal efficacy Eo (Echinochloa oryzicola; dose 1 kg/ha): 5
Herbicidal efficacy Blw ([1]; dose 0.5 kg/ha): 5
Herbicidal efficacy Blw ([1]; dose 1 kg/ha): 5
Herbicidal activity Dc (Abutilon theophrasti): 5
Herbicidal efficacy Mv (Monochoria vaginalis; dose 0.5 kg/ha): 5
Herbicidal efficacy Mv (Monochoria vaginalis; dose 1 kg/ha): 5
Herbicidal activity Ec (Echinochloa crus-galli [2]): 5
Herbicidal activity Av (Amaranthus viridis [3]): 5
Herbicidal activity Ca (Chenopodium album [4]): 5
Herbicidal efficacy Sj (Scirpus juncoides; dose 0.5 kg/ha): 5
Herbicidal efficacy Sj (Scirpus juncoides; dose 1 kg/ha): 5
Herbicidal efficacy Cd (Cyperus difformis; dose 0.5 kg/ha): 5
Herbicidal efficacy Cd (Cyperus difformis; dose 1 kg/ha): 5
Herbicidal efficacy Ea (Eleocharis acicularis; dose 0.5 kg/ha): 5
Herbicidal efficacy Ea (Eleocharis acicularis; dose 1 kg/ha): 5

CCNC(=O)n1nc(Oc2c(Cl)cc(C(F)(F)F)cc2Cl)cc1C [Compound 3-44]
Herbicidal efficacy Eo (Echinochloa oryzicola; dose 0.5 kg/ha): 5
Herbicidal efficacy Eo (Echinochloa oryzicola; dose 1 kg/ha): 5
Herbicidal efficacy Blw ([1]; dose 0.5 kg/ha): 5
Herbicidal efficacy Blw ([1]; dose 1 kg/ha): 5
Injury Zm (sweet corn (Zea mays)): 3
Herbicidal activity Dc (Abutilon theophrasti): 5
Herbicidal efficacy Mv (Monochoria vaginalis; dose 0.5 kg/ha): 5
Herbicidal efficacy Mv (Monochoria vaginalis; dose 1 kg/ha): 5
Herbicidal activity Ec (Echinochloa crus-galli [2]): 5
Herbicidal activity Av (Amaranthus viridis [3]): 5
Herbicidal activity Ca (Chenopodium album [4]): 5
Herbicidal efficacy Sj (Scirpus juncoides; dose 0.5 kg/ha): 5
Herbicidal efficacy Sj (Scirpus juncoides; dose 1 kg/ha): 5
Herbicidal activity Ec (Echinochloa crus-galli [5]): 5
Herbicidal activity Av (Amaranthus viridis [6]): 5
Herbicidal activity Dc (Digitaria ciliaris): 5
Herbicidal activity Ca (Chenopodium album [7]): 5
Herbicidal efficacy Cd (Cyperus difformis; dose 0.5 kg/ha): 5
Herbicidal efficacy Cd (Cyperus difformis; dose 1 kg/ha): 5
Herbicidal efficacy Ea (Eleocharis acicularis; dose 0.5 kg/ha): 5
Herbicidal efficacy Ea (Eleocharis acicularis; dose 1 kg/ha): 5

CCC(C)NC(=O)n1nc(Oc2ncc(C(F)(F)F)cc2Cl)cc1C (stereo not shown) [Compound 4-30, N-s-butyl-3-(3-chloro-5-trifluoromethylpyridin-2-yloxy)-5-methylpyrazole-1-carboxamide]
Herbicidal activity Dc (Abutilon theophrasti): 5
Herbicidal activity Ec (Echinochloa crus-galli [2]): 5
Herbicidal activity Av (Amaranthus viridis [3]): 5
Herbicidal activity Ca (Chenopodium album [4]): 5

CCCNC(=O)n1nc(Oc2ccc(C(F)(F)F)cc2[N+](=O)[O-])cc1C [Compound 3-82]
Herbicidal activity Dc (Abutilon theophrasti): 5
Herbicidal activity Ec (Echinochloa crus-galli [2]): 3.8
Herbicidal activity Av (Amaranthus viridis [3]): 5
Herbicidal activity Ca (Chenopodium album [4]): 5
